Assay results reported in US20070015840A1, “Use of an alkyl ether of hydroxystilbene for the treatment of dry skin” (L'OREAL, priority 2002, published 2007).

Test system: immortalized human sebocytes derived from the SZ95 line
Assay: Lipogenesis in immortalized human sebocytes in culture (SZ95 line), Nile Red fluorescence, total lipids
Assay type: cell-based
Details: for VARIATION IN LIPIDS (relative to the control): 0.1% DMSO, 24 hours treatment, total lipids, Nile Red
Description: Resveratrol trimethyl ether was tested on a model of immortalized human sebocytes in culture, derived from the SZ95 line described in Zouboulis, C. C., Seltmann, H., Neitzel, H. & Orfanos, C. E., Establishment and Characterization of an Immortalized Human Sebaceous Gland Cell Line, J. Invest. Dermatol., 113, 1011-1020 (1999).
The test consisted in measuring the amount of lipids produced by the sebocytes of the line (at confluence), in the presence or absence of an active agent diluted in DMSO, at two different concentrations, such that the final amount of DMSO in the culture medium is 0.1% and the amount of resveratrol trimethyl ether is 0.01% (4×10^−4 M) and 0.001% (4×10^−5 M), respectively. After treatment for 24 hours, the adherent cells are treated with Nile Red (1 μg/ml). The lipid content is then quantified by measuring the fluorescence of the dye (two excitation/emission pairs: 485-540 nm for the neutral lipids and 540-620 nm for the non-neutral lipids). The results are given for the total lipids (combination of the two measurements).
The experiment is performed in sextuplicate (products assayed and control) in 96-well plates and repeated four times.

Row | Structure (SMILES) | VARIATION IN LIPIDS (relative to the control) (0.001% (4×10^−5 M) compound) | VARIATION IN LIPIDS (relative to the control) (0.01% (4×10^−4 M) compound) | inhibition of lipogenesis (0.001%, same conditions as resveratrol trimethyl ether (second of 'respectively')) | inhibition of lipogenesis (0.01%, same conditions as resveratrol trimethyl ether (first of 'respectively')) | ability of sebocytes to produce sebum (qualitative statement in the description)
1 | COc1ccc(C=Cc2cc(OC)cc(OC)c2)cc1 [resveratrol trimethyl ether, Resveratrol trimethyl ether] | +36% | +46% |  |  | 
2 | Oc1ccc(C=Cc2cc(O)cc(O)c2)cc1 [resveratrol] |  |  | 67% | 20% | decreased
